Molecules are shown by their SMILES.

For one data set, the system named is soybean. Description: Bioassay 1, drought stress, soybean test (foliage spray, degree of withering). Conditions: 200 ppm foliage spray; for Withering Index: 2 to 3 leaf stage, 2 days at 25° C., aerial parts cut out, four stages (0: healthy to 3: complete withering), average of test series. The format is in vivo. Here is the method:
(§1) A 5-membered heterocyclyl compound dissolved in DMF was diluted with water so that the concentration of the compound was 200 ppm, and a sufficient amount of the diluted solution was foliage-sprayed on corn and soybean at the 2 to 3 leaf stage.
(§2) Corn and soybean foliage-sprayed with a sufficient amount of a diluted solution prepared by removing the compound were used as the untreated plot.
(§3) The sprayed test plants were cultivated for 2 days under the conditions of a temperature of 25° C. and a day length of 14 hours.
(§4) The aerial parts were cut out and the corn or soybean of the untreated plot was left to stand until completely withered. The degree of withering was investigated from the perspective of four stages (0: healthy to 3: complete withering).
Here, with respect to soybean, complete withering refers to a state in which all the leaves of the soybean are withered and the upper part is curved.
(§5) Abscisic acid was used as a control. Abscisic acid (ABA), known as a plant hormone, is produced by the plant itself and is known as an important signal substance that closes the stomata during drought stress to suppress excessive transpiration of water from the leaves, and induces stress tolerance.
The index of ABA indicates the average of the results of a series of 10 tests. The index of the 5-membered heterocyclyl compound (F) indicates the average of the results of a series of 2 tests.

For a further data set, the system named is corn. Description: Bioassay 1, drought stress, corn test (foliage spray, degree of withering). Format: in vivo. To be noted: 200 ppm foliage spray; for Withering Index: 2 to 3 leaf stage, 2 days at 25° C., aerial parts cut out, four stages (0: healthy to 3: complete withering), average of test series. Here is the method:
as §1, §2, §3, §4
As for corn, it refers to a bent state.
as §5
The index of ABA indicates the average of the results of a series of 10 tests. The index of the 5-membered heterocyclyl compounds (A) to (F) indicates the average of the results of a series of 2 tests.

The test system of the next data set is Arabidopsis thaliana. Description: Bioassay 2, salt stress, survival of Arabidopsis thaliana plants in 150 mM NaCl. Format: in vivo. Conditions: 168 h, 5 ppm compound for 1 day, then 150 mM NaCl for 7 days, green individuals alive, yellowed or bleached dead, read-out: Survival Rate (%). Here is the method:
Arabidopsis thaliana seeds were sterilized with 70% ethanol and then sown in a petri dish containing HYPONeX (sterilized) diluted 4,000 times with water. The compound was diluted with sterile water so that the concentration of the compound dissolved in DMSO was 5 ppm. 65 μl of each drug solution was dispensed into a 96-well microplate, into which 5 Arabidopsis thaliana plants on their 8th day of sowing were placed and left to stand for 1 day. The next day, the plants were transferred to a well containing 65 μl of 150 mM NaCl and cultured for 7 days. The treatment was performed in two series, and in the investigation, a stereomicroscope was used to determine their survival, with the green individuals identified as alive and the yellowed or bleached individuals as dead.

Consider `CC1=CC(=O)CC(C)(C)[C@@]1(O)/C=C/C(C)=C\C(=O)O` [ABA, Abscisic acid, reference compound], for which the “Withering Index” value with soybean is 0.5; in the data set on corn it was 1.1.

With `N#CCON=C1CN(C(=O)Cc2ccc(-c3noc(C(F)(F)F)n3)cc2)C1` [A], in the data set on corn, the “Withering Index” value is on record as 1.5.

For the compound `CCON=C1CN(C(=O)C(OC)c2ccc(-c3noc(C(F)(F)F)n3)cc2)C1` (centres unmarked) [B], in the data set with corn, the “Withering Index” value is 1.5.

Consider `O=c1cccnn1Cc1ccc(-c2noc(C(F)(F)F)n2)cc1` [C], for which the “Withering Index” value in the data set with corn was 1.5.

For the compound `CCON=C1CN(C(=O)C(OC)c2ccc(-c3noc(C(F)(F)F)n3)cc2F)C1` (centres unmarked) [Compound 1], the responders at 5 ppm with Arabidopsis thaliana is 80%.

For the compound `C=CCON=C1CN(C(=O)Cc2ccc(-c3noc(C(F)(F)F)n3)cc2)C1` [Compound 2], in the data set on Arabidopsis thaliana, the responders at 5 ppm worked out at 70%.

Regarding `CON=C1CN(c2cc(=O)n(Cc3ccc(-c4noc(C(F)(F)F)n4)cc3)cn2)C1` [Compound 3], the responders at 5 ppm in the data set on Arabidopsis thaliana was determined as 70%.

`O=c1cc(OCc2ccc(-c3noc(C(F)(F)F)n3)cc2)ccn1CC1CC1` [Compound 4] came in with a melting point of 115 to 117 °C. In addition, the “Withering Index” value in the data set on soybean is reported as 1.5.

Regarding `CSc1nccc(OCc2ccc(-c3noc(C(F)(F)F)n3)cc2)n1` [Compound 5], the responders at 5 ppm in the data set on Arabidopsis thaliana is 80%.

For the compound `FC(F)(F)c1nc(-c2ccc(COc3cc(Cl)ncn3)cc2)no1` [Compound 6], the melting point lay within 144 to 146 °C. Besides, in the data set with corn, the “Withering Index” value worked out at 1.0.

`FC(F)(F)c1nc(-c2ccc(COc3cc(-n4cncn4)ncn3)cc2)no1` [Compound 7]: the responders at 5 ppm in the data set on Arabidopsis thaliana stood at 70%.

As for `CC(=NOC/C=C/Cl)c1ccc(C2=NOC(O)(C(F)(F)F)C2)cc1` (centres unmarked) [Compound 8], the melting point lay within 126 to 128 °C. For the same compound, the “Withering Index” value in the data set with corn is on record as 1.5.

Compound `CON=C(C)c1ccc(C2=NOC(OC)(C(F)(F)F)C2)cc1` (centres unmarked) [Compound 9] registered a melting point of 80 to 82 °C. In the data set with corn, the “Withering Index” value is 1.5.

`COc1cncn(Cc2ccc(-c3noc(C(F)(F)F)n3)cc2)c1=O` [Compound 10] registered a melting point of 119 to 120 °C. In the data set on corn, the “Withering Index” value is recorded as 1.0.

Compound `COCCn1cccc(OCc2ccc(-c3noc(C(F)(F)F)n3)cc2)c1=O` [Compound 11] registered a melting point of 127 to 130 °C. For the same compound, the “Withering Index” value in the data set on corn is reported as 1.0.

On to `O=C(c1ccc(-c2noc(C(F)(F)F)n2)cc1)N1CCCCC1` [D], for which the “Withering Index” value with corn is listed as 1.5. Further, the responders at 5 ppm with Arabidopsis thaliana was 80%.

With `CC1(NC(=O)c2ccc(-c3noc(C(F)(F)F)n3)cc2)CC1` [E], in the data set on corn, the “Withering Index” value is given as 1.5.

Take `O=C(NC12CC(C1)C2)c1ccc(-c2noc(C(F)(F)F)n2)cc1` [F]: the “Withering Index” value came out at 1.5 with soybean and 0.5 in the data set with corn. In addition, the “reduction of drought stress compared with ABA” value in the data set with soybean (result in words) is reported as “reduces the drought stress, although to a lesser extent than ABA”; with corn (result in words), “showed an index higher than that of ABA”.

As to `CCON=C1CN(C(=O)C(C)c2ccc(-c3noc(C(F)(F)F)n3)cc2)C1` (centres unmarked) [G], the responders at 5 ppm with Arabidopsis thaliana was determined as 80%.

Regarding `Cc1nc(C)n(Cc2ccc(-c3noc(C(F)(F)F)n3)cc2)c(=O)c1Cl` [H], the “Withering Index” value in the data set on corn is 1.5.

Consider `O=c1c(Cl)c(Cl)cnn1Cc1ccc(-c2noc(C(F)(F)F)n2)cc1` [J], for which, in the data set on corn, the “Withering Index” value amounted to 1.0.

In the case of `O=C(NC1CC1)c1ccn(Cc2ccc(-c3noc(C(F)(F)F)n3)cc2)n1` [K], the “Withering Index” value with corn was determined as 1.0.

Consider `CCOC(=O)c1ccnn1Cc1ccc(-c2noc(C(F)(F)F)n2)cc1` [L], for which the “Withering Index” value with soybean came out at 1.5.

For `O=C1CCCCN1Cc1ccc(-c2noc(C(F)(F)F)n2)cc1` [M], the responders at 5 ppm with Arabidopsis thaliana was found to be 70%.

The melting point is the temperature, or range, at which the solid turns liquid.

Source of the values: US20230232830A1, “METHOD FOR REDUCING OR PREVENTING EFFECT OF NON-BIOLOGICAL STRESS ON PLANT” (NIPPON SODA CO., LTD., priority 2020, published 2023).
